Experimental data published in publication PMC3948918 (PLoS ONE, 2014).
Read-outs that look alike come from different tables or passages of the source. Numbered stars: 1 amine (or outer) side, 2 acyl side, 3 side chain; on linkers, the order of the positions; unused ones are H or OH. Bridge positions count the residues as written; N and C are the ends. Square brackets hold non-standard residues; d marks the D form. Peptide text beside a SMILES is read from it. Adda = CO[C@@H](Cc1ccccc1)[C@@H](C)/C=C(C)/C=C/[C@H](N[*:1])[C@H](C)C(=O)[*:2]; dAsp(3S-Me) = C[C@H](C(=O)[*:3])[C@@H](N[*:1])C(=O)[*:2]; d(γGlu) = O=C(O)[C@@H](CCC(=O)[*:2])N[*:1]; NMeDha = C=C(NC)C(=O)O

What was measured:
[1] = system: OATP1B1-expressing RKO cells; details: read-out: IC50 RKO B1
[2] = system: OATP1B3-expressing RKO cells
[3] = system: OATP1B1- and OATP1B3-expressing HeLa or RKO cell lines
[4] = system: OATP1B1-expressing HeLa cells; details: read-out: IC50 HeLa B1
HeLa Control cells [5] = details: read-out: IC50 HeLa Control
[6] = system: OATP1B3-expressing HeLa cells; details: for IC50: read-out: IC50 HeLa B3
OATP1B1 = assay: in vitro; details: human
HeLa Control cells [7] = details: cited from earlier work
[8] = system: OATP1B1-expressing HeLa cells; details: cited from earlier work
[9] = system: OATP1B3-expressing HeLa cells; details: cited from earlier work

Compound	IC50 [1] [nM]	Ratio IC50 B1/B3 RKO [2]	IC50 ([2]; read-out: IC50 RKO B3) [nM]	transporter selectivity (in words) [3]	IC50 (RKO control cells; read-out: IC50 RKO control) [nM]	IC50 [4] [nM]	IC50 (HeLa Control cells [5]) [nM]	Ratio IC50 B1/B3 HeLa [6]	IC50 [6] [nM]	further results
C=C1C(=O)N[C@H](C)C(=O)N[C@@H](CC(C)C)C(=O)N[C@@H](C(=O)O)CC(=O)N[C@@H](CCCNC(=N)N)C(=O)N[C@@H](/C=C/C(C)=C/[C@H](C)[C@H](Cc2ccccc2)OC)[C@H](C)C(=O)N[C@@H](C(=O)O)CCC(=O)N1C [compound 2, [D-Asp^3]MC-LR]	7.3	0.2	31.3	least OATP1B3 selective	> 1000	–	–	–	–	–
C=C1C(=O)N[C@H](C)C(=O)N[C@@H](Cc2ccc(O)cc2)C(=O)N[C@@H](C(=O)O)CC(=O)N[C@@H](CCCNC(=N)N)C(=O)N[C@@H](/C=C/C(C)=C/[C@H](C)[C@H](Cc2ccccc2)OC)[C@H](C)C(=O)N[C@@H](C(=O)O)CCC(=O)N1C [compound 14, [D-Asp^3]MC-YR]	149	3.1	48	–	> 1000	–	–	–	–	–
C/C=C1/NC(=O)CC[C@H](C(=O)O)NC(=O)[C@@H](C)[C@H](/C=C/C(C)=C/[C@H](C)[C@H](Cc2ccccc2)OC)NC(=O)[C@H](Cc2ccc(O)cc2)NC(=O)C[C@H](C(=O)O)NC(=O)[C@H](CC(C)C)NC(=O)[C@@H](C)NC1=O [compound 6, [D-Asp^3,(E)-Dhb^7]MC-LY]	–	–	–	weakly OATP1B3 selective	–	0.47	> 10	2.6	0.18	IC50 values (potency grouping) [3]: sub-nanomolar
C/C=C1/NC(=O)CC[C@H](C(=O)O)NC(=O)[C@@H](C)[C@H](/C=C/C(C)=C/[C@H](C)[C@H](Cc2ccccc2)OC)NC(=O)[C@H](CCCNC(=N)N)NC(=O)C[C@H](C(=O)O)NC(=O)[C@H](Cc2ccc(O)cc2)NC(=O)[C@@H](C)NC1=O [compound 15, [D-Asp^3,(E)-Dhb^7]MC-YR]	108	4.0	27.1	most OATP1B3 selective	> 1000	–	–	–	–	–
C=C1C(=O)N[C@H](C)C(=O)N[C@@H](CCCNC(=N)N)C(=O)N[C@@H](C(=O)O)[C@H](C)C(=O)N[C@@H](Cc2ccc(O)cc2)C(=O)N[C@@H](/C=C/C(C)=C/[C@H](C)[C@H](Cc2ccccc2)OC)[C@H](C)C(=O)N[C@@H](C(=O)O)CCC(=O)N1C [compound 16, MC-RY] (Y[Adda][d(γGlu)][NMeDha][dA]R[dAsp(3S-Me)]-OH; lactam N-7)	–	–	–	most OATP1B3 selective	–	77	> 1000	30.8	2.5	–
C=C1C(=O)N[C@H](C)C(=O)N[C@@H](CC(C)C)C(=O)N[C@@H](C(=O)O)[C@H](C)C(=O)N[C@@H](Cc2c[nH]c3ccccc23)C(=O)N[C@@H](/C=C/C(C)=C/[C@H](C)[C@H](Cc2ccccc2)OC)[C@H](C)C(=O)N[C@@H](C(=O)O)CCC(=O)N1C [compound 8, LW, reference compound] (W[Adda][d(γGlu)][NMeDha][dA]L[dAsp(3S-Me)]-OH; lactam N-7)	0.4	1.4	0.29	weakly OATP1B3 selective	> 1000	0.22	> 1000	1.4	0.16	IC50 values (potency grouping) [3]: sub-nanomolar
CC=C1C(=O)N[C@@H](C(=O)O)[C@H](C)C(=O)N[C@@H](CCCNC(=N)N)C(=O)N[C@@H](/C=C/C(C)=C/[C@H](C)[C@H](Cc2ccccc2)OC)[C@H](C)C(=O)N[C@@H](C(=O)O)CCC(=O)N1C [compound 23, Nodularin]	10	< 0.1	> 100	–	> 100	8.4	> 100	< 0.1	> 100	–
CO[C@@H](Cc1ccccc1)[C@@H](C)/C=C(C)/C=C/[C@@H]1NC(=O)[C@H](CCCCNC(=N)N)NC(=O)C[C@H](C(=O)O)NC(=O)[C@H](Cc2ccc(O)cc2)NC(=O)[C@@H](C)NC(=O)[C@H](CO)N(C)C(=O)CC[C@H](C(=O)O)NC(=O)[C@H]1C [compound 21, [D-Asp^3,MSer^7]MC-YHar]	–	1.6	–	–	–	–	–	–	–	IC50 ([2]; human): 385 nM; IC50 ([3]; human): > 100 nM; IC50 (OATP1B1): 625 nM; IC50 (RKO control cells; 3 h): > 1000 nM
C=C1[C@@H](O)[C@@H]2O[C@]3(CC[C@H](/C=C/[C@@H](C)[C@@H]4CC(C)=C[C@@]5(O[C@H](C[C@@](C)(O)C(=O)O)CC[C@H]5O)O4)O3)CC[C@H]2O[C@@H]1[C@@H](O)C[C@H](C)[C@H]1O[C@@]2(CCCCO2)CC[C@H]1C [compound 24, okadaic acid]	–	–	–	–	–	–	–	–	–	IC50 (HeLa Control cells [7]): 7.8 nM; IC50 [8]: 2.2 nM; IC50 [9]: 3 nM; Ratio IC50 B1/B3 HeLa [9]: 0.7
C/C=C1/NC(=O)CC[C@H](C(=O)O)NC(=O)[C@@H](C)[C@H](/C=C/C(C)=C/[C@H](C)[C@H](Cc2ccccc2)OC)NC(=O)[C@H](Cc2c[nH]c3ccccc23)NC(=O)C[C@H](C(=O)O)NC(=O)[C@H](CCc2ccc(O)cc2)NC(=O)[C@@H](C)NC1=O [compound 20, [D-Asp^3,(E)-Dhb^7]MC-HtyW]	–	1.9	–	–	–	–	–	–	–	IC50 ([2]; human): 2.57 nM; IC50 (OATP1B1): 4.9 nM; IC50 (RKO control cells; 3 h): > 100 nM
C=C1C(=O)N[C@H](C)C(=O)N[C@@H](CC(C)C)C(=O)N[C@@H](C(=O)O)[C@H](C)C(=O)N[C@@H](CCCNC(=N)N)C(=O)N[C@@H](/C=C/C(C)=C/[C@H](C)[C@H](Cc2ccccc2)OC)[C@H](C)C(=O)N[C@@H](C(=O)O)CCC(=O)N1C [compound 1, MC-LR, reference compound] (R[Adda][d(γGlu)][NMeDha][dA]L[dAsp(3S-Me)]-OH; lactam N-7)	8.2	0.3	26.9	least OATP1B3 selective	> 1000	1	> 1000	0.2	5.1	–
C=C1C(=O)N[C@H](C)C(=O)N[C@@H](CC(C)C)C(=O)N[C@@H](C(=O)O)[C@H](C)C(=O)N[C@@H](Cc2ccc(O)cc2)C(=O)N[C@@H](/C=C/C(C)=C/[C@H](C)[C@H](Cc2ccccc2)OC)[C@H](C)C(=O)N[C@@H](C(=O)O)CCC(=O)N1C [compound 5, MC-LY] (Y[Adda][d(γGlu)][NMeDha][dA]L[dAsp(3S-Me)]-OH; lactam N-7)	–	–	–	least OATP1B3 selective	–	0.16	> 10	0.8	0.21	IC50 values (potency grouping) [3]: sub-nanomolar
C=C1C(=O)N[C@H](C)C(=O)N[C@@H](CC(C)CC)C(=O)N[C@@H](C(=O)O)CC(=O)N[C@@H](CCCNC(=N)N)C(=O)N[C@@H](/C=C/C(C)=C/[C@H](C)[C@H](Cc2ccccc2)OC)[C@H](C)C(=O)N[C@@H](C(=O)O)CCC(=O)N1C (stereo partly drawn) [compound 3, [D-Asp^3]MC-HilR]	–	0.4	–	least OATP1B3 selective	–	–	–	–	–	IC50 ([2]; human): 142 nM; IC50 (OATP1B1): 57 nM; IC50 (RKO control cells; 3 h): > 1000 nM
C/C=C1/NC(=O)CC[C@H](C(=O)O)NC(=O)[C@@H](C)[C@H](/C=C/C(C)=C/[C@H](C)[C@H](Cc2ccccc2)OC)NC(=O)[C@H](Cc2c[nH]c3ccccc23)NC(=O)C[C@H](C(=O)O)NC(=O)[C@H](CC(C)C)NC(=O)[C@@H](C)NC1=O [compound 9, [D-Asp^3,(E)-Dhb^7]-MC-LW]	11	1.4	7.7	weakly OATP1B3 selective	> 1000	–	–	–	–	–
C/C=C1/NC(=O)CC[C@H](C(=O)O)NC(=O)[C@@H](C)[C@H](/C=C/C(C)=C/[C@H](C)[C@H](Cc2ccccc2)OC)NC(=O)[C@H](CCCNC(=N)N)NC(=O)C[C@H](C(=O)O)NC(=O)[C@H](CC(C)CC)NC(=O)[C@@H](C)NC1=O (stereo partly drawn) [compound 4, [D-Asp^3,(E)-Dhb^7]MC-HilR]	–	15.0	–	most OATP1B3 selective	–	–	–	–	–	IC50 ([2]; human): 3.8 nM; IC50 (OATP1B1): 56.9 nM; IC50 (RKO control cells; 3 h): 993 nM
C=C1C(=O)N[C@H](C)C(=O)N[C@@H](Cc2ccc(O)cc2)C(=O)N[C@@H](C(=O)O)[C@H](C)C(=O)N[C@@H](CCCNC(=N)N)C(=O)N[C@@H](/C=C/C(C)=C/[C@H](C)[C@H](Cc2ccccc2)OC)[C@H](C)C(=O)N[C@@H](C(=O)OC)CCC(=O)N1C [compound 22, [D-Glu(OMe)^6]MC-YR]	595	2.6	227	–	> 1000	–	–	–	–	IC50 ([3]; read-out: IC50 values (potency grouping)): > 100 nM
C=C1C(=O)N[C@H](C)C(=O)N[C@@H](Cc2ccc(O)cc2)C(=O)N[C@@H](C(=O)O)[C@H](C)C(=O)N[C@@H](Cc2ccc(O)cc2)C(=O)N[C@@H](/C=C/C(C)=C/[C@H](C)[C@H](Cc2ccccc2)OC)[C@H](C)C(=O)N[C@@H](C(=O)O)CCC(=O)N1C [compound 17, MC-YY] (Y[Adda][d(γGlu)][NMeDha][dA]Y[dAsp(3S-Me)]-OH; lactam N-7)	–	–	–	–	–	1.5	259	1.9	0.8	IC50 values (potency grouping) [3]: sub-nanomolar
C=C1C(=O)N[C@H](C)C(=O)N[C@@H](CCCNC(=N)N)C(=O)N[C@@H](C(=O)O)[C@H](C)C(=O)N[C@@H](Cc2ccccc2)C(=O)N[C@@H](/C=C/C(C)=C/[C@H](C)[C@H](Cc2ccccc2)OC)[C@H](C)C(=O)N[C@@H](C(=O)O)CCC(=O)N1C [compound 12, MC-RF] (F[Adda][d(γGlu)][NMeDha][dA]R[dAsp(3S-Me)]-OH; lactam N-7)	58.3	17.2	3.38	most OATP1B3 selective	> 1000	–	–	–	–	–
